# Like-named read-outs stand apart in the source and are kept apart here.
# Columns and labels:
# [1] = test system: CD4+ Th, CD4+CXCR5+ Tfh cells and Foxp3+ Tregs; conditions: mice, intraperitoneal injection 1 mg/kg; cited from earlier work
# [2] = test system: CYP3A4, CYP1A2 and CYP2D6; conditions: cited from earlier work
# [3] = test system: CYP3A4, CYP1A2 and CYP2D6; conditions: cited from earlier work; remark: listed apart in the source
# [4] = Toxicokinetics test in the satellite groups (UPLC-MS/MS of rat plasma); type: in vivo
# Description: SD rats (5 ~ 6 weeks, 3/group/sex) were randomly allocated to three treatment groups and given the same dosage as those in the repeated toxicity experiment for 28 days. […] Carbamazepine was chosen as the internal standard (IS). The blood samples were centrifuged to obtain plasma. Then, 300 μL of acetonitrile containing 40 ng of IS was added to 100 μL of plasma. After vortexing for 1 min, the mixture was centrifuged at 17,000 rpm for 15 min at 4 °C. The supernatant of each sample was injected into a UPLC–MS/MS system for determination. The injection volume was 1 μL. UPLC–MS analysis was performed on a Thermo Fisher Scientific Ultimate 3000 UPLC system (San Jose, USA) and an API 4000 QTRAP mass spectrometer (Foster City, USA) equipped with an ESI source. The mobile phase consisted of 2 solvents: (A) water containing 0.1% formic acid and (B) 100% acetonitrile. For MS, multiple reaction monitoring (MRM) in positive ion mode was used as the scanning mode for the main components and IS in the plasma samples. The dwell time (DT), collision energy (CE), quadrupole 1 pre-rod bias (Q1) and quadrupole 3 pre-rod bias (Q3) are listed in Table 3.
# [5] = cited from earlier work
# [6] = test system: diarrhoea-predominant irritable bowel syndrome; conditions: rats, 50 and 100 mg/kg for 14 days; cited from earlier work
# [7] = test system: thyroid hormone-induced diarrhoea; conditions: rats, 60 mg/kg oral gavage for 7 days; cited from earlier work
# [8] = test system: spleen; conditions: mice, intraperitoneal injection 10 mg/kg; cited from earlier work
# [9] = female SD rats, pure berberine 90 mg/kg orally, previous study, reference not given
# [10] = male rats, pure berberine 90 mg/kg
# [11] = female rats, Day 1, high dose TAZF 3.7 g/kg by gavage
# [12] = female rats, Day 1, highest dose (berberine 72.08, epiberberine 7.42, coptisine 7.42, palmatine 18.26, jatrorrhizine 2.80, columbamine 5.93 mg/kg)
# [13] = female rats, Day 1, low dose TAZF 0.4 g/kg by gavage
# [14] = female rats, Day 1, lowest dose (berberine 8.01, epiberberine 0.82, coptisine 1.38, palmatine 2.03, jatrorrhizine 0.31, columbamine 0.66 mg/kg)
# [15] = female rats, Day 1, middle dose (berberine 24.03, epiberberine 2.47, coptisine 2.47, palmatine 6.09, jatrorrhizine 0.93, columbamine 1.98 mg/kg)
# [16] = female rats, Day 28, high dose TAZF 3.7 g/kg by gavage
# [17] = female rats, Day 28, highest dose (berberine 72.08, epiberberine 7.42, coptisine 7.42, palmatine 18.26, jatrorrhizine 2.80, columbamine 5.93 mg/kg)
# [18] = female rats, Day 28, low dose TAZF 0.4 g/kg by gavage
# [19] = female rats, Day 28, lowest dose (berberine 8.01, epiberberine 0.82, coptisine 1.38, palmatine 2.03, jatrorrhizine 0.31, columbamine 0.66 mg/kg)
# [20] = female rats, Day 28, middle dose (berberine 24.03, epiberberine 2.47, coptisine 2.47, palmatine 6.09, jatrorrhizine 0.93, columbamine 1.98 mg/kg)
# [21] = male rats, Day 1, high dose TAZF 3.7 g/kg by gavage
# [22] = male rats, Day 1, highest dose (berberine 72.08, epiberberine 7.42, coptisine 7.42, palmatine 18.26, jatrorrhizine 2.80, columbamine 5.93 mg/kg)
# [23] = male rats, Day 1, low dose TAZF 0.4 g/kg by gavage
# [24] = male rats, Day 1, lowest dose (berberine 8.01, epiberberine 0.82, coptisine 1.38, palmatine 2.03, jatrorrhizine 0.31, columbamine 0.66 mg/kg)
# [25] = male rats, Day 1, middle dose (berberine 24.03, epiberberine 2.47, coptisine 2.47, palmatine 6.09, jatrorrhizine 0.93, columbamine 1.98 mg/kg)
# [26] = male rats, Day 28, high dose TAZF 3.7 g/kg by gavage
# [27] = male rats, Day 28, highest dose (berberine 72.08, epiberberine 7.42, coptisine 7.42, palmatine 18.26, jatrorrhizine 2.80, columbamine 5.93 mg/kg)
# [28] = male rats, Day 28, low dose TAZF 0.4 g/kg by gavage
# [29] = male rats, Day 28, lowest dose (berberine 8.01, epiberberine 0.82, coptisine 1.38, palmatine 2.03, jatrorrhizine 0.31, columbamine 0.66 mg/kg)
# [30] = male rats, Day 28, middle dose (berberine 24.03, epiberberine 2.47, coptisine 2.47, palmatine 6.09, jatrorrhizine 0.93, columbamine 1.98 mg/kg)
smiles,measurement,setting,value
COc1ccc2cc3[n+](cc2c1OC)CCc1cc2c(cc1-3)OCO2 [berberine],T cell subset levels,[1],reduced levels of CD^4+ Th and CD^4+CXCR^5+ Tfh cells and an increased level of Foxp^3+ Tregs
same,"Metabolism by CYP3A4, CYP1A2 and CYP2D6",[2],metabolized
same,"Inhibition of CYP3A4, CYP1A2 and CYP2D6",[3],inhibited
same,AUC(0-t),"[4]; female, SD, rat, plasma, po, 0.4 g/kg, female rats, Day 1, low dose TAZF 0.4 g/kg by gavage, read-out: AUC0-t",122 ± 17.1 ng·h/mL
same,Cmax,"[4]; female, SD, rat, plasma, po, 0.4 g/kg, female rats, Day 1, low dose TAZF 0.4 g/kg by gavage, read-out: Cmax",149 ± 73 ng/mL
same,AUC(0-t),"[4]; female, SD, rat, plasma, po, 0.4 g/kg, female rats, Day 28, low dose TAZF 0.4 g/kg by gavage, read-out: AUC0-t",838 ± 949 ng·h/mL
same,Cmax,"[4]; female, SD, rat, plasma, po, 0.4 g/kg, female rats, Day 28, low dose TAZF 0.4 g/kg by gavage, read-out: Cmax",324 ± 432 ng/mL
same,AUC(0-t),"[4]; female, SD, rat, plasma, po, 3.7 g/kg, female rats, Day 1, high dose TAZF 3.7 g/kg by gavage, read-out: AUC0-t",306 ± 94.7 ng·h/mL
same,Cmax,"[4]; female, SD, rat, plasma, po, 3.7 g/kg, female rats, Day 1, high dose TAZF 3.7 g/kg by gavage, read-out: Cmax",219 ± 118 ng/mL
same,AUC(0-t),"[4]; female, SD, rat, plasma, po, 3.7 g/kg, female rats, Day 28, high dose TAZF 3.7 g/kg by gavage, read-out: AUC0-t",153 ± 53.7 ng·h/mL
same,Cmax,"[4]; female, SD, rat, plasma, po, 3.7 g/kg, female rats, Day 28, high dose TAZF 3.7 g/kg by gavage, read-out: Cmax",23.8 ± 6.25 ng/mL
same,AUC(0-t),"[4]; male, SD, rat, plasma, po, 0.4 g/kg, male rats, Day 1, low dose TAZF 0.4 g/kg by gavage, read-out: AUC0-t",1220 ± 389 ng·h/mL
same,Cmax,"[4]; male, SD, rat, plasma, po, 0.4 g/kg, male rats, Day 1, low dose TAZF 0.4 g/kg by gavage, read-out: Cmax",222 ± 180 ng/mL
same,AUC(0-t),"[4]; male, SD, rat, plasma, po, 0.4 g/kg, male rats, Day 28, low dose TAZF 0.4 g/kg by gavage, read-out: AUC0-t",699 ± 644 ng·h/mL
same,Cmax,"[4]; male, SD, rat, plasma, po, 0.4 g/kg, male rats, Day 28, low dose TAZF 0.4 g/kg by gavage, read-out: Cmax",460 ± 276 ng/mL
same,AUC(0-t),"[4]; male, SD, rat, plasma, po, 3.7 g/kg, male rats, Day 1, high dose TAZF 3.7 g/kg by gavage, read-out: AUC0-t",1860 ± 425 ng·h/mL
same,Cmax,"[4]; male, SD, rat, plasma, po, 3.7 g/kg, male rats, Day 1, high dose TAZF 3.7 g/kg by gavage, read-out: Cmax",219 ± 24.4 ng/mL
same,AUC(0-t),"[4]; male, SD, rat, plasma, po, 3.7 g/kg, male rats, Day 28, high dose TAZF 3.7 g/kg by gavage, read-out: AUC0-t",608 ± 203 ng·h/mL
same,Cmax,"[4]; male, SD, rat, plasma, po, 3.7 g/kg, male rats, Day 28, high dose TAZF 3.7 g/kg by gavage, read-out: Cmax",136 ± 77.9 ng/mL
same,Systemic exposure after 28 days of administration vs single administration,"[4]; rats, oral TAZF",much lower
same,AUC0–36,[5]; [9],88.8 ng·h/mL
same,Cmax,[5]; [9],29.2 ng/mL
same,AUC0–60,[5]; [10],305.8 ng·h/mL
same,Cmax,[5]; [10],28.2 ng/mL
same,Effect on diarrhoea-predominant irritable bowel syndrome,[6],improve diarrhoea-predominant irritable bowel syndrome
same,Effect on thyroid hormone-induced diarrhoea,[7],effect was also observed
same,Immunosuppressive effect and spleen weight,[8],strong immunosuppressive effect and reduced spleen weight
c1c2c(cc3c1OCO3)-c1cc3ccc4c(c3c[n+]1CC2)OCO4 [coptisine],Cmax,"[4]; male, SD, rat, in vivo, po, 0.4 g/kg",45.49 ± 57.63 ng/mL
same,Cmax,"[4]; male, SD, rat, in vivo, po, 0.4 g/kg, Cmax",32.4 ± 33 ng/mL
same,Cmax,"[4]; male, SD, rat, in vivo, po, 3.7 g/kg",20.05 ± 13.57 ng/mL
same,Cmax,"[4]; male, SD, rat, in vivo, po, 3.7 g/kg, Cmax",32.3 ± 9.08 ng/mL
same,Systemic exposure after 28 days of administration vs single administration,"[4]; rat, in vivo, po",much lower
COc1cc2c(cc1OC)-c1cc3ccc4c(c3c[n+]1CC2)OCO4 [epiberberine],"Inhibition of CYP3A4, CYP1A2 and CYP2D6",[3],inhibited
same,28-day AUC relative to the first day,"[4]; rat, in vivo",1 to 2 times
COc1cc2c(cc1OC)-c1cc3ccc(OC)c(OC)c3c[n+]1CC2 [palmatine],"Metabolism by CYP3A4, CYP1A2 and CYP2D6",[2],metabolized
same,AUC(0-t),[4]; [11],38.00 ± 16.92 ng·h/mL
same,Cmax,[4]; [11],46.60 ± 27.16 ng/mL
same,Cmax mean,[4]; [12],46.60 ng/mL
same,T1/2 mean,[4]; [12],5.18 h
same,Tmax mean,[4]; [12],0.50 h
same,AUC(0-t),[4]; [13],18.08 ± 4.07 ng·h/mL
same,Cmax,[4]; [13],27.93 ± 13.97 ng/mL
same,Cmax mean,[4]; [14],27.93 ng/mL
same,T1/2 mean,[4]; [14],5.96 h
same,Tmax mean,[4]; [14],0.42 h
same,AUC0-t mean,[4]; [15],90.31 ng·h/mL
same,Cmax mean,[4]; [15],77.60 ng/mL
same,T1/2 mean,[4]; [15],3.29 h
same,Tmax mean,[4]; [15],0.83 h
same,AUC(0-t),[4]; [16],24.07 ± 12.21 ng·h/mL
same,Cmax,[4]; [16],5.67 ± 2.58 ng/mL
same,Cmax mean,[4]; [17],5.67 ng/mL
same,T1/2 mean,[4]; [17],3.98 h
same,Tmax mean,[4]; [17],0.83 h
same,AUC(0-t),[4]; [18],116.47 ± 138.20 ng·h/mL
same,Cmax,[4]; [18],55.94 ± 72.88 ng/mL
same,Cmax mean,[4]; [19],55.94 ng/mL
same,T1/2 mean,[4]; [19],80.32 h
same,Tmax mean,[4]; [19],0.42 h
same,AUC0-t mean,[4]; [20],14.65 ng·h/mL
same,Cmax mean,[4]; [20],4.16 ng/mL
same,T1/2 mean,[4]; [20],9.33 h
same,Tmax mean,[4]; [20],1.33 h
same,AUC(0-t),[4]; [21],342.51 ± 66.62 ng·h/mL
same,Cmax,[4]; [21],51.33 ± 17.52 ng/mL
same,Cmax mean,[4]; [22],51.33 ng/mL
same,T1/2 mean,[4]; [22],10.38 h
same,Tmax mean,[4]; [22],3.33 h
same,AUC(0-t),[4]; [23],236.12 ± 103.55 ng·h/mL
same,Cmax,[4]; [23],52.47 ± 52.73 ng/mL
same,Cmax mean,[4]; [24],52.47 ng/mL
same,T1/2 mean,[4]; [24],12.88 h
same,Tmax mean,[4]; [24],3.33 h
same,AUC0-t mean,[4]; [25],318.68 ng·h/mL
same,Cmax mean,[4]; [25],71.53 ng/mL
same,T1/2 mean,[4]; [25],26.57 h
same,Tmax mean,[4]; [25],0.67 h
same,AUC(0-t),[4]; [26],110.18 ± 34.30 ng·h/mL
same,Cmax,[4]; [26],32.93 ± 24.17 ng/mL
same,Cmax mean,[4]; [27],32.93 ng/mL
same,T1/2 mean,[4]; [27],11.01 h
same,Tmax mean,[4]; [27],4.08 h
same,AUC(0-t),[4]; [28],36.98 ± 18.55 ng·h/mL
same,Cmax,[4]; [28],67.20 ± 74.82 ng/mL
same,Cmax mean,[4]; [29],67.20 ng/mL
same,T1/2 mean,[4]; [29],12.22 h
same,Tmax mean,[4]; [29],0.83 h
same,AUC0-t mean,[4]; [30],102.21 ng·h/mL
same,Cmax mean,[4]; [30],22.63 ng/mL
same,T1/2 mean,[4]; [30],2.90 h
same,Tmax mean,[4]; [30],12.00 h
same,Systemic exposure after 28 days of administration vs single administration,"[4]; rats, oral TAZF",much lower
O=c1c2ccccc2nc2n1CCc1c-2[nH]c2ccccc12 [rutaecarpine],Level in plasma,"[4]; both, SD, rat, in vivo, po",< 0.5 ng/mL

# From article PMC9377102, “Toxicity and toxicokinetics of the ethanol extract of Zuojin formula” (BMC Complementary Medicine and Therapies, 2022)
